The test system of experiment [1] is Staphylococcus aureus. The experiment in a line: Antibacterial activity against methicillin-resistant Staphylococcus aureus incubated for 24 hrs by CLSI based microdilution method. Format: functional. (Broth dilution looks for growth in wells or tubes with falling amounts of substance.)
In experiment [2] the test system is Enterococcus faecalis. The experiment in a line: Antibacterial activity against vancomycin-resistant Enterococcus faecalis ATCC 51299 incubated for 24 hrs by CLSI based microdilution method. The format is functional.
The subject of experiment [3] is Staphylococcus aureus. The experiment is described as follows: Antibacterial activity against Staphylococcus aureus assessed as bacterial growth inhibition at 0.5 to 4 times MIC measured for 4 hrs by absorbance based assay. The format is functional, organism-based.
Experiment [4] concerns Enterococcus faecalis. The experiment is described as follows: Disruption of morphology in vancomycin-resistant Enterococcus faecalis ATCC 51299 at 4 times MIC incubated for 18 hrs by SEM analysis. The format is functional, organism-based.
The test system of experiment [5] is Enterococcus faecalis. The experiment is described as follows: Antibacterial activity against vancomycin-resistant Enterococcus faecalis ATCC 51299 infected in specific pathogen-free Kunming mouse model of abdominal infection assessed as reduction in bacterial load in spleen at 10 mg/kg, ip measured after 72 hrs by plate counting method. The format is functional, organism-based.

Experiment [6] concerns Enterococcus faecalis. The experiment in a line: Antibacterial activity against vancomycin-resistant Enterococcus faecalis ATCC 51299 infected in specific pathogen-free Kunming mouse model of abdominal infection assessed as reduction in bacterial load in liver at 10 mg/kg, ip measured after 72 hrs by plate counting method. Format: functional, organism-based.
The subject of experiment [7] is Enterococcus faecalis. The experiment in a line: Antibacterial activity against vancomycin-resistant Enterococcus faecalis ATCC 51299 infected in specific pathogen-free Kunming mouse model of abdominal infection assessed as reduction in bacterial load in kidney at 10 mg/kg, ip measured after 72 hrs by plate counting method. Format: functional, organism-based.
The test system of experiment [8] is Enterococcus faecalis. The experiment is described as follows: Antibacterial activity against vancomycin-resistant Enterococcus faecalis ATCC 51299 infected in specific pathogen-free Kunming mouse model of abdominal infection assessed as reduction in bacterial load in abdominal effusion at 10 mg/kg, ip measured after 72 hrs by plate counting method. The format is functional, organism-based.

Experiment [9] concerns Enterococcus faecalis. The experiment is described as follows: Antibacterial activity against vancomycin-resistant Enterococcus faecalis ATCC 51299 assessed as bacterial growth inhibition at 0.5 to 4 times MIC measured after 12 hrs by absorbance based assay. Format: functional, organism-based.
Experiment [10] deals with Enterococcus faecalis. The experiment in a line: Induction of resistance development in vancomycin-resistant Enterococcus faecalis ATCC 51299 at sub-MIC measured after 20 days of continuous passages. The format is functional, organism-based. To be noted: time 20.0 day.
The subject of experiment [11] is Enterococcus faecalis. The experiment is described as follows: Induction of resistance development in vancomycin-resistant Enterococcus faecalis ATCC 51299 assessed as fold increase in activity at sub-MIC measured after 4 days of continuous passages relative to control. The format is functional. To be noted: time 4 day.
For experiment [12], the system named is Enterococcus faecalis. The experiment in a line: Disruption of membrane integrity in vancomycin-resistant Enterococcus faecalis ATCC 51299 at 2 times MIC incubated for 2 hrs by Hoechst staining based CLSM analysis. Format: functional, organism-based.
The test system of experiment [13] is Enterococcus faecalis. The experiment in a line: Disruption of membrane integrity in vancomycin-resistant Enterococcus faecalis ATCC 51299 at 2 times MIC incubated for 2 hrs by PI staining based CLSM analysis. The format is functional, organism-based.
For experiment [14], the system named is Enterococcus faecalis. The experiment in a line: Disruption of membrane integrity in vancomycin-resistant Enterococcus faecalis ATCC 51299 at 2 times MIC incubated for 2 hrs by SYTOX Green staining based CLSM analysis. Format: functional, organism-based.

Values after ≈ are worked out from the molar mass of the structure shown. Active and inactive are the calls of the source. The rule behind the calls is not given here. Some results are limits rather than exact numbers.

Turning to `CO[C@@]1(NC(=O)Cc2cccs2)C(=O)N2C(C(=O)O)=C(COC(N)=O)CS[C@@H]21` [CEFOXITIN], the MIC (commonly the lowest concentration found to suppress growth) with Staphylococcus aureus [1] is greater than 16 µg/mL.

Take `C=C(C)C1CC[C@]2(C)CC1c1c(O)c3c(c(CC=C(C)C)c1O2)O[C@]12C(=C[C@@H]4CC1C(C)(C)OC2(C/C=C(\C)C(=O)O)C4=O)C3=O` (stereo partly drawn): the MIC in the experiment on Enterococcus faecalis [2] and with Staphylococcus aureus [1] was greater than 16 µg/mL throughout.

In turn, `CC1(C)S[C@@H]2[C@H](NC(=O)[C@H](N)c3ccccc3)C(=O)N2[C@H]1C(=O)O` [AMPICILLIN] yielded an MIC against Enterococcus faecalis [2] of 4 µg/mL (≈ 11.4 µM). For the same molecule, the inhibition result in the experiment with Staphylococcus aureus [3] was “Active”. In addition, the outcome with Enterococcus faecalis [4], with Enterococcus faecalis [5], in the experiment on Enterococcus faecalis [6], in the experiment with Enterococcus faecalis [7] and with Enterococcus faecalis [8] was Active.

Regarding `COc1c(O)cc2oc3cc(O)c(CC=C(C)C)c(O)c3c(=O)c2c1CC=C(C)C` [MANGOSTIN], the MIC against Enterococcus faecalis [2] and in the experiment with Staphylococcus aureus [1] was 4 µg/mL (≈ 9.75 µM) in each case.

For `CC(C)=CCC[C@]1(C)C=Cc2c(O)c3c(c(CC=C(C)C)c2O1)O[C@]12C(=C[C@@H]4C[C@H]1C(C)(C)O[C@@]2(C/C=C(/C)C(=O)O)C4=O)C3=O` [GAMBOGIC ACID], the MIC with Enterococcus faecalis [2] and with Staphylococcus aureus [1] was 4 µg/mL (≈ 6.36 µM) throughout.

`CN[C@H](CC(C)C)C(=O)N[C@H]1C(=O)N[C@@H](CC(N)=O)C(=O)N[C@H]2C(=O)N[C@H]3C(=O)N[C@H](C(=O)N[C@H](C(=O)O)c4cc(O)cc(O)c4-c4cc3ccc4O)[C@H](O)c3ccc(c(Cl)c3)Oc3cc2cc(c3O[C@@H]2O[C@H](CO)[C@@H](O)[C@H](O)[C@H]2O[C@H]2C[C@](C)(N)[C@H](O)[C@H](C)O2)Oc2ccc(cc2Cl)[C@H]1O`: the inhibition entry in the experiment with Enterococcus faecalis [9] was “inactive”.

For `CCCCCCCCCC(=O)N[C@@H](Cc1c[nH]c2ccccc12)C(=O)N[C@@H](CC(N)=O)C(=O)N[C@@H](CC(=O)O)C(=O)N[C@@H]1C(=O)NCC(=O)N[C@@H](CCCN)C(=O)N[C@@H](CC(=O)O)C(=O)N[C@H](C)C(=O)N[C@@H](CC(=O)O)C(=O)NCC(=O)N[C@H](CO)C(=O)N[C@@H]([C@@H](C)CC(=O)O)C(=O)N[C@@H](CC(=O)c2ccccc2N)C(=O)O[C@@H]1C`, the outcome in the experiment on Enterococcus faecalis [10] was inactive. Further, in the experiment with Enterococcus faecalis [11], the “fold change (FC)” value is 32.

In the case of `COc1cc2oc3cc(OC)c(OC)c(CC=C(C)C)c3c(=O)c2c(O)c1CC=C(C)C`, the MIC with Enterococcus faecalis [2] and in the experiment on Staphylococcus aureus [1] was greater than 16 µg/mL throughout.

For `COc1c(O)cc2oc3cc(O)c(CCC(C)(C)O)c(O)c3c(=O)c2c1CC=C(C)C`, the MIC against Enterococcus faecalis [2] and in the experiment with Staphylococcus aureus [1] was 16 µg/mL (≈ 37.3 µM) throughout.

Take `COc1cc2oc3cc(O)c(OC)c(CC=C(C)C)c3c(=O)c2c(O)c1CC=C(C)C`: the MIC against Enterococcus faecalis [2] is 16 µg/mL (≈ 37.7 µM); in the experiment with Staphylococcus aureus [1], greater than 16 µg/mL.

With `CC(C)=CCC[C@]1(C)CC(O)c2c(O)c3c(c(CC=C(C)C)c2O1)O[C@]12C(=C[C@@H]4C[C@H]1C(C)(C)O[C@@]2(C/C=C(/C)C(=O)O)C4=O)C3=O` (stereo partly drawn), the results for the MIC in the experiment with Enterococcus faecalis [2] and in the experiment on Staphylococcus aureus [1] were 16 µg/mL (≈ 24.7 µM) and 8 µg/mL (≈ 12.4 µM), respectively.

On to `CC(C)=CCc1c(O)cc2oc3cc(O)c(O)c(CC=C(C)C)c3c(=O)c2c1O`, for which the MIC against Enterococcus faecalis [2] and against Staphylococcus aureus [1] was 4 µg/mL (≈ 10.1 µM) in each case.

Regarding `COc1c(O)cc2oc3cc(O)c(CC=C(C)C)c(O)c3c(=O)c2c1CCC(C)(C)O` [GARCINONE D], the MIC in the experiment on Enterococcus faecalis [2] was 4 µg/mL (≈ 9.34 µM); against Staphylococcus aureus [1], 8 µg/mL (≈ 18.7 µM).

For `CC(C)=CCc1c(O)cc2oc3cc(O)c(O)c(CCC(C)(C)O)c3c(=O)c2c1O`, the results for the minimum inhibitory concentration (MIC) against Enterococcus faecalis [2] and against Staphylococcus aureus [1] were greater than 16 µg/mL and 4 µg/mL (≈ 9.65 µM), respectively.

As to `CC[C@H](C)[C@H](NC(=O)CN)C(=O)NCC(=O)N[C@@H](C)C(=O)N[C@H](C(=O)N[C@@H](CC(C)C)C(=O)N[C@@H](CCCCN)C(=O)N[C@H](C(=O)N[C@@H](CC(C)C)C(=O)N[C@H](C(=O)N[C@H](C(=O)NCC(=O)N[C@@H](CC(C)C)C(=O)N1CCC[C@H]1C(=O)N[C@@H](C)C(=O)N[C@@H](CC(C)C)C(=O)N[C@H](C(=O)N[C@@H](CO)C(=O)N[C@@H](Cc1c[nH]c2ccccc12)C(=O)N[C@H](C(=O)N[C@@H](CCCCN)C(=O)N[C@@H](CCCNC(=N)N)C(=O)N[C@@H](CCCCN)C(=O)N[C@@H](CCCNC(=N)N)C(=O)N[C@@H](CCC(N)=O)C(=O)N[C@@H](CCC(N)=O)C(N)=O)[C@@H](C)CC)[C@@H](C)CC)[C@@H](C)O)[C@@H](C)O)C(C)C)C(C)C`, the outcome in the experiment on Enterococcus faecalis [12], with Enterococcus faecalis [13] and with Enterococcus faecalis [14] was Active.

Take `CC(C)=CCc1c(O)c(CC=C(C)C)c2oc3c(O)ccc(O)c3c(=O)c2c1O` [GARTANIN]: the minimal inhibitory concentration (MIC) in the experiment with Enterococcus faecalis [2] and in the experiment with Staphylococcus aureus [1] was greater than 16 µg/mL throughout.

On to `CC(C)=CCc1c(O)c(CC=C(C)C)c2oc3c(O)cccc3c(=O)c2c1O` [8-DEOXYGARTANIN], for which the MIC against Enterococcus faecalis [2] and against Staphylococcus aureus [1] was greater than 16 µg/mL each time.

The record behind these values is ChEMBL document CHEMBL6092170, “Activity of the Caged Xanthone Morellic Acid against Vancomycin-Resistant Enterococcus Infection by Targeting the Bacterial Membrane” (2024).
